Patent publication US8829030B2 (priority 2002, dated 2014)
Structures can show the parent of a compound that is named as a salt.

molecular target: recombinant HCV RNA-dependent RNA polymerase (NS5B protein) (Hepatitis C virus genotype 1b, UniProt P26663); test: biochemical; parameters: species or system HCV-Bk strain; settings: not given
Sequence (P26663 2420-3010 limits assumed): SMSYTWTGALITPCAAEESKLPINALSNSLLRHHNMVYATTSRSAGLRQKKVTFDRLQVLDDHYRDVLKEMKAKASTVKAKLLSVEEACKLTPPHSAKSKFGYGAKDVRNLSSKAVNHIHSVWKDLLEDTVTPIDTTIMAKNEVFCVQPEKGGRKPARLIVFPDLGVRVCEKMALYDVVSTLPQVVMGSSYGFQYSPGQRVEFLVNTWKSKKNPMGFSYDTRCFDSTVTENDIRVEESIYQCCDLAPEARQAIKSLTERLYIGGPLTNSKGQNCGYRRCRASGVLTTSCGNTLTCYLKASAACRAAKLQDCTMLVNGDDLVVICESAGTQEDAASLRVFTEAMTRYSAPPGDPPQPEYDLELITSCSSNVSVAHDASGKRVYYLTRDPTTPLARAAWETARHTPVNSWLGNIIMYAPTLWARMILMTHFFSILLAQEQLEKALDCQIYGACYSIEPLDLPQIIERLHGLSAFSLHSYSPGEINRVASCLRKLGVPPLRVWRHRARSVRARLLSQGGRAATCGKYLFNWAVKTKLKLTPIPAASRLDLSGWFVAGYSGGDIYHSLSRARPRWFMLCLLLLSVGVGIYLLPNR

`CO[C@H]1CC[C@H](N(c2cc(-c3ccccc3)sc2C(=O)O)C(=O)[C@H]2CC[C@H](C)CC2)CC1` [Compound 46, 3-[(4-methoxy-cyclohexyl)-(4-methyl-cyclohexanecarbonyl)-amino]-5-phenyl-thiophene-2-carboxylic acid] and `C[C@H]1CC[C@H](C(=O)N(c2cc(-c3ccccc3)sc2C(=O)O)[C@H]2CC[C@H](O)CC2)CC1` [Compound 15, 3-[(trans-4-Hydroxy-cyclohexyl)-(trans-4-methyl-cyclohexanecarbonyl)-amino]-5-phenyl-thiophene-2-carboxylic acid] cannot be ordered by IC50: < 5 µM for the first, < 5 µM for the second.

`CC1CCC(C(=O)N(c2cc(-c3ccccc3)sc2C(=O)O)C2CCCNCC2)CC1` (stereo not drawn) [Compound 6, 3-[azepan-4-yl-(4-methyl-cyclohexanecarbonyl)-amino]-5-phenyl-thiophene-2-carboxylic acid] and `C[C@H]1CC[C@H](C(=O)N(c2cc(-c3ccccc3)sc2C(=O)O)[C@H]2CC[C@H](O)C2)CC1` [Compound 90, 3-[(3-hydroxy-cyclopentyl)-(4-methyl-cyclohexanecarbonyl)-amino]-5-phenyl-thiophe-2-carboxylic acid] cannot be ordered by IC50: < 5 µM for the first, < 5 µM for the second.

`CC1CCC(F)(C(=O)N(c2cc(-c3ccccc3)sc2C(=O)O)C(C)C)CC1` (stereo not drawn) [Compound 9, Trans-3-[(1-Fluoro-4-methyl-cyclohexanecarbonyl)-isopropyl-amino]-5-phenyl-thiophene-2-carboxylic acid] and `CC(C)N(C(=O)[C@H]1CC[C@H](C)CO1)c1cc(-c2ccccc2)sc1C(=O)O` (relative stereo) [Compound 27, 3-[Isopropyl-(trans-5-methyl-tetrahydro-pyran-2-carbonyl)-amino]-5-phenyl-thiophene-2-carboxylic acid] cannot be ordered by IC50: < 5 µM for the first, < 5 µM for the second.

First: CCC(C)C(CN)N(C(=O)c1ccc(Cl)cc1Cl)c1cc(-c2ccccc2)sc1C(=O)O (stereo not drawn) [Compound 20, 3-[(1-aminomethyl-2-methyl-butyl)-(2,4-dichloro-benzoyl)-amino]-5-phenyl-thiophene-2-carboxylic acid]
Second: CCC(C)C(C[NH3+])N(C(=O)c1ccccc1Cl)c1cc(-c2ccccc2)sc1C(=O)O (stereo not drawn) [Compound 19, 2-[(2-carboxy-5-phenyl-thiophen-3-yl)-(2-chloro-benzoyl)-amino]-3-methyl-pentyl-ammonium trifluoroacetate]
The IC50 of the first is lower: 5 to 20 µM for the first, > 20 µM for the second.

First: C=C1CCC(C(=O)N(c2cc(-c3ccccc3)sc2C(=O)O)C(C)C)CC1 [Compound 28, 3-[isopropyl-(4-methylene-cyclohexanecarbonyl)-amino]-5-phenyl-thiophene-2-carboxylic acid]
Second: CC1COC(C(=O)N(c2cc(-c3ccccc3)sc2C(=O)O)C(C)C)OC1 (stereo not drawn) [Compound 22, 3-[isopropyl-(5-methyl-[1,3]dioxane-2-carbonyl)-amino]-5-phenyl-thiophene-2-carboxylic acid]
The IC50 of the first is lower: < 5 µM for the first, 5 to 20 µM for the second.

`CC(=O)c1ccc(-c2cc(N(C(=O)[C@H]3CC[C@H](C)CC3)[C@H]3CC[C@H](O)CC3)c(C(=O)O)s2)s1` [Compound 80, 5′-acetyl-4-[(4-hydroxy-cyclohexyl)-(4-methyl-cyclohexanecarbonyl)-amino]-[2,2′]bithiophenyl-5-carboxylic acid] and `CC1CCC(C(=O)N(c2cc(-c3cccc(F)c3)sc2C(=O)O)C2CCC(O)CC2)CC1` (stereo not drawn) [Compound 51, 5-(3-fluoro-phenyl)-3-[(4-hydroxy-cyclohexyl)-(4-methyl-cyclohexanecarbonyl)-amino]-thiophene-2-carboxylic acid] cannot be ordered by IC50: < 5 µM for the first, < 5 µM for the second.

`CON=C1CCC(N(C(=O)C2CCC(C)CC2)c2cc(-c3ccccc3)sc2C(=O)O)CC1` (stereo not drawn) [Compound 25, 3-[(4-methoxyimino-cyclohexyl)-(4-methyl-cyclohexanecarbonyl)-amino]-5-phenyl-thiophene-2-carboxylic acid] and `CC1CCC(C(=O)N(c2cc(-c3ccccc3)sc2C(=O)O)C2CCC(=NO)CC2)CC1` (stereo not drawn) [Compound 16, 3-[(4-hydroxyimino-cyclohexyl)-(4-methyl-cyclohexanecarbonyl)-amino]-5-phenyl-thiophene-2-carboxylic acid] cannot be ordered by IC50: < 5 µM for the first, < 5 µM for the second.

`CC1CCC(C(=O)N(Cc2ccccn2)c2cc(-c3ccccc3)sc2C(=O)O)CC1` (stereo not drawn) [Compound 14, 3-[(4-methyl-cyclohexanecarbonyl)-pyridin-2-ylmethyl-amino]-5-phenyl-thiophene-2-carboxylic acid] and `CC1CCC(C(=O)N(Cc2ccncc2)c2cc(-c3ccccc3)sc2C(=O)O)CC1` (stereo not drawn) [Compound 4, 3-[(4-methyl-cyclohexanecarbonyl)-pyridin-4-ylmethyl-amino]-5-phenyl-thiophene-2-carboxylic acid] cannot be ordered by IC50: < 5 µM for the first, < 5 µM for the second.

`C[C@H]1CC[C@H](C(=O)N(c2cc(-c3ccc(F)cc3)sc2C(=O)O)[C@H]2CC[C@@H](O)CC2)CC1` [Compound 73, 5-(4-fluoro-phenyl)-3-[(4-hydroxy-cyclohexyl)-(4-methyl-cyclohexanecarbonyl)-amino]-thiophene-2-carboxylic acid] and `C[C@H]1CC[C@H](C(=O)N(c2cc(-c3ccc(F)cc3)sc2C(=O)O)[C@H]2CC[C@H](O)CC2)CC1` [Compound 50, 5-(4-fluoro-phenyl)-3-[(4-hydroxy-cyclohexyl)-(4-methyl-cyclohexanecarbonyl)-amino]-thiophene-2-carboxylic acid] cannot be ordered by IC50: < 5 µM for the first, < 5 µM for the second.

`COc1ccc(CN2CCC(N(c3cc(-c4ccccc4)sc3C(=O)O)C(=O)[C@H]3CC[C@H](C)CC3)CC2=O)cc1` (stereo partly drawn) [Compound 42, 3-[[1-(4-methoxy-benzyl)-2-oxo-piperidin-4-yl]-(4-methyl-cyclohexanecarbonyl)-amino]-5-phenyl-thiophene-2-carboxylic acid] and `CC1CCC(C(=O)N(c2cc(-c3ccccc3)sc2C(=O)O)C2CCN(C(N)=O)CC2)CC1` (stereo not drawn) [Compound 81, 3-[(1-carbamoyl-piperidin-4-yl)-(4-methyl-cyclohexanecarbonyl)-amino]-5-phenyl-thiophene-2-carboxylic acid] cannot be ordered by IC50: < 5 µM for the first, < 5 µM for the second.

First: CC(=O)NC1CC(C)CCC1C(=O)N(c1cc(-c2ccccc2)sc1C(=O)O)C(C)C (stereo not drawn) [Compound 12, 3-[(2-acetylamino-4-methyl-cyclohexanecarbonyl)-isopropyl-amino]-5-phenyl-thiophene-2-carboxylic acid]
Second: CC1CCC(C(=O)N(c2cc(-c3cccc(F)c3)sc2C(=O)O)C(C)C)C(O)C1 (stereo not drawn) [Compound 44, 5-(3-fluoro-phenyl)-3-[(2-hydroxy-4-methyl-cyclohexanecarbonyl)-isopropyl-amino]-thiophene-2-carboxylic acid]
The IC50 of the first is higher: 5 to 20 µM for the first, < 5 µM for the second.

`C[C@H]1CC[C@H](C(=O)N(c2cc(-c3ccccc3)sc2C(=O)O)C2CC[S+]([O-])CC2)CC1` (relative stereo) [Compound 68, 3-[(trans-4-Methyl-cyclohexanecarbonyl)-(1-oxo-tetrahydro-thiopyran-4-yl)-amino]-5-phenyl-thiophene-2-carboxylic acid] and `C[C@H]1CC[C@H](C(=O)N(c2cc(-c3ccccc3)sc2C(=O)O)[C@H]2CC[C@@H](O)CC2)CC1` [Compound 47, 3-[(4-methyl-cyclohexanecarbonyl)-(4-hydroxy-cyclohexyl)-amino]-5-phenyl-thiophene-2-carboxylic acid] cannot be ordered by IC50: < 5 µM for the first, < 5 µM for the second.

`C[C@H]1CC[C@H](C(=O)N(c2cc(-c3ccccc3)sc2C(=O)O)[C@H]2CC[C@](C)(O)CC2)CC1` [Compound 88, 3-[(4-hydroxy-4-methyl-cyclohexyl)-(4-methyl-cyclohexanecarbonyl)-amino]-5-phenyl-thiophene-2-carboxylic acid] and `CC1(O)CCC(N(c2cc(-c3ccccc3)sc2C(=O)O)C(=O)[C@H]2CC[C@@H](C)CC2)CC1` (relative stereo) [Compound 86, cis-3-[(4-Hydroxy-4-methyl-cyclohexyl)-(4-methyl-cyclohexanecarbonyl)-amino]-5-phenyl-thiophene-2-carboxylic acid] cannot be ordered by IC50: < 5 µM for the first, < 5 µM for the second.

`CC(C)N(C(=O)C1=CC[C@H](C)CC1)c1cc(-c2ccc(F)cc2)sc1C(=O)O` [Compound 26, (4R)-5-(4-Fluoro-phenyl)-3-[isopropyl-(4-methyl-cyclohex-1-enecarbonyl)-amino]-thiophene-2-carboxylic acid] and `C[C@H]1CC[C@H](C(=O)N(c2cc(-c3ccc(F)c(F)c3)sc2C(=O)O)[C@H]2CC[C@H](O)CC2)CC1` [Compound 79, 5-(3,4-difluoro-phenyl)-3-[(4-hydroxy-cyclohexyl)-(4-methyl-cyclohexanecarbonyl)-amino]-thiophene-2-carboxylic acid] cannot be ordered by IC50: < 5 µM for the first, < 5 µM for the second.

`C[C@H]1CC[C@H](C(=O)N(c2cc(-c3ccccc3)sc2C(=O)O)C2CCS(=O)(=O)CC2)CC1` [Compound 37, 3-[(1,1-Dioxo-tetrahydro-thiopyran-4-yl)-(trans-4-methyl-cyclohexanecarbonyl)-amino]-5-phenyl-thiophene-2-carboxylic acid] and `CC1CCC(C(=O)N(c2cc(-c3ccccc3)sc2C(=O)O)C2CCN(C=O)CC2)CC1` (stereo not drawn) [Compound 63, 3-[(1-formyl-piperidin-4-yl)-(4-methyl-cyclohexanecarbonyl)-amino]-5-phenyl-thiophene-2-carboxylic acid] cannot be ordered by IC50: < 5 µM for the first, < 5 µM for the second.

`CC1CCC(C(=O)N(c2cc(-c3ccccc3)sc2C(=O)O)C2CCN(C#N)CC2)CC1` (stereo not drawn) [Compound 77, 3-[(1-cyano-piperidin-4-yl)-(4-methyl-cyclohexanecarbonyl)-amino]-5-phenyl-thiophene-2-carboxylic acid] and `CC(=O)N1CCC(N(C(=O)C2CCC(C)CC2)c2cc(-c3ccccc3)sc2C(=O)O)CC1` (stereo not drawn) [Compound 48, 3-[(1-acetyl-piperidin-4-yl)-(4-methyl-cyclohexanecarbonyl)-amino]-5-phenyl-thiophene-2-carboxylic acid] cannot be ordered by IC50: < 5 µM for the first, < 5 µM for the second.

same assay, conditions: read-out: Activity (polymerase activity, IC50)

For `CC1CCC(C(=O)N(c2cc(-c3ccccc3)sc2C(=O)O)C2CCN(C(=O)C(N)=O)CC2)CC1` (stereo not drawn) [Compound 83, 3-[(1-aminooxalyl-piperidin-4-yl)-(4-methyl-cyclohexanecarbonyl)-amino]-5-phenyl-thiophene-2-carboxylic acid], the IC50 was < 5 µM.
